Laboratory results taken from patent US6737383B1, “Herbicidal oxadiazolidines” (priority 1999, dated 2004).

How the values were obtained:
soybean = assay: Test B pre/postemergence soybean; type: in vivo, Glycine max
In short: (§1)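 Response is a visual 0-to-10 score relative to untreated plants, where 0 means no effect and 10 means complete control, taken twelve to sixteen days after application. Treatments went onto soil at planting and onto foliage of 1- to 4-leaf plants, using a surfactant-containing non-phytotoxic solvent.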

wheat = assay: Test B pre/postemergence wheat; type: in vivo, Triticum aestivum
In short: as §1

pigweed = assay: Test B pre/postemergence pigweed; type: in vivo, Amaranthus retroflexus
In short: as §1

wild oat = assay: Test B pre/postemergence wild oat; type: in vivo, Avena fatua
In short: as §1

cocklebur = assay: Test B pre/postemergence cocklebur; type: in vivo, Xanthium strumarium
In short: as §1

purple nutsedge = assay: Test B pre/postemergence purple nutsedge; type: in vivo, Cyperus rotundus
In short: as §1

giant foxtail = assay: Test B pre/postemergence giant foxtail; type: in vivo, Setaria faberii
In short: as §1

crabgrass = assay: Test B pre/postemergence crabgrass; type: in vivo, Digitaria sanguinalis
In short: as §1

rape = assay: Test B pre/postemergence rape; type: in vivo, Brassica napus
In short: as §1

surinam grass = assay: Test B pre/postemergence surinam grass; type: in vivo, Brachiaria decumbens
In short: as §1

corn = assay: Test B pre/postemergence corn; type: in vivo, Zea mays
In short: as §1

bedstraw = assay: Test B pre/postemergence bedstraw; type: in vivo, Galium aparine
In short: as §1

morningglory = assay: Test B pre/postemergence morningglory; type: in vivo, Ipomoea hederacea
In short: as §1

velvetleaf = assay: Test B pre/postemergence velvetleaf; type: in vivo, Abutilon theophrasti
In short: as §1

sugar beet = assay: Test B pre/postemergence sugar beet; type: in vivo, Beta vulgaris
In short: as §1

blackgrass = assay: Test B pre/postemergence blackgrass; type: in vivo, Alopecurus myosuroides
In short: as §1

[1] = Preemergence, Rate 62 g/ha, scale of 0 to 10 where 0 is no effect and 10 is complete control
[2] = Preemergence, Rate 250 g/ha, scale of 0 to 10 where 0 is no effect and 10 is complete control
[3] = Preemergence, Rate 500 g/ha, scale of 0 to 10 where 0 is no effect and 10 is complete control
[4] = Rate 125 g/ha, Preemergence, scale of 0 to 10 where 0 is no effect and 10 is complete control
[5] = Rate 500 g/ha, Postemergence, scale 0 to 10, 0 no effect, 10 complete control
[6] = Rate 62 g/ha, Postemergence, scale of 0 to 10 where 0 is no effect and 10 is complete control
[7] = Rate 125 g/ha, Postemergence, scale 0 to 10
[8] = Postemergence, Rate 62 g/ha, scale of 0 to 10, 0 is no effect, 10 is complete control
[9] = Postemergence, Rate 125 g/ha, scale 0 to 10, 0 is no effect, 10 is complete control
[10] = Postemergence, Rate 500 g/ha, scale 0 to 10, 0 is no effect, 10 is complete control
[11] = Preemergence, Rate 125 g/ha, scale 0 to 10, 0 is no effect, 10 is complete control
[12] = Postemergence, Rate 250 g/ha, scale 0 to 10
[13] = Preemergence, Rate 250 g/ha, scale 0 to 10, 0 is no effect, 10 is complete control
[14] = Preemergence, Rate 500 g/ha, scale 0 to 10, 0 is no effect, 10 is complete control

SMILES: CC(C)N(C(=O)n1oc(=O)n(COCc2ccccc2)c1=O)c1ccc(F)cc1 [Compound 261]
- Soybean plant response rating (soybean; [1]): 0
- Soybean plant response rating (soybean; [2]): 0
- Plant response rating, Soybean (soybean; [3]): 0
- Soybean plant response rating (soybean; [4]): 0
- Soybean plant response rating (soybean; [5]): 4
- Wheat plant response rating (wheat; [1]): 0
- Wheat plant response rating (wheat; [2]): 0
- Plant response rating, Wheat (wheat; [3]): 0
- Wheat plant response rating (wheat; [4]): 0
- Wheat plant response rating (wheat; [5]): 2
- Redroot pigweed plant response rating (pigweed; [1]): 0
- Redroot pigweed plant response rating (pigweed; [2]): 0
- Plant response rating, Redroot pigweed (pigweed; [3]): 0
- Redroot pigweed plant response rating (pigweed; [4]): 0
- Plant response rating (0 to 10; 0 is no effect, 10 is complete control), Redroot pigweed (pigweed; Rate 250 g/ha, Postemergence): 1
- Redroot pigweed plant response rating (pigweed; [5]): 2
- Wild oats plant response rating (wild oat; [1]): 0
- Wild oats plant response rating (wild oat; [2]): 0
- Plant response rating, Wild oats (wild oat; [3]): 0
- Wild oats plant response rating (wild oat; [4]): 0
- Wild oats plant response rating (wild oat; [5]): 0
- Cocklebur plant response rating (cocklebur; [1]): 0
- Cocklebur plant response rating (cocklebur; [2]): 0
- Plant response rating, Cocklebur (cocklebur; [3]): 0
- Cocklebur plant response rating (cocklebur; [6]): 0
- Cocklebur plant response rating (cocklebur; [7]): 0
- Cocklebur plant response rating (cocklebur; [4]): 0
- Plant response rating (0 to 10; 0 is no effect, 10 is complete control), Cocklebur (cocklebur; Rate 250 g/ha, Postemergence): 0
- Cocklebur plant response rating (cocklebur; [5]): 1
- Nutsedge plant response rating (purple nutsedge; [2]): 0
- Plant response rating, Nutsedge (purple nutsedge; [3]): 0
- Nutsedge plant response rating (purple nutsedge; [4]): 0
- Plant response rating (0 to 10; 0 is no effect, 10 is complete control), Nutsedge (purple nutsedge; Rate 250 g/ha, Postemergence): 0
- Nutsedge plant response rating (purple nutsedge; [5]): 0
- Giant foxtail plant response rating (giant foxtail; [1]): 8
- Giant foxtail plant response rating (giant foxtail; [2]): 9
- Plant response rating, Giant foxtail (giant foxtail; [3]): 9
- Giant foxtail plant response rating (giant foxtail; [4]): 8
- Plant response rating (0 to 10; 0 is no effect, 10 is complete control), Giant foxtail (giant foxtail; Rate 250 g/ha, Postemergence): 0
- Giant foxtail plant response rating (giant foxtail; [5]): 0
- Crabgrass plant response rating (crabgrass; [1]): 2
- Crabgrass plant response rating (crabgrass; [2]): 5
- Plant response rating, Crabgrass (crabgrass; [3]): 5
- Crabgrass plant response rating (crabgrass; [4]): 3
- Plant response rating (0 to 10; 0 is no effect, 10 is complete control), Crabgrass (crabgrass; Rate 250 g/ha, Postemergence): 0
- Crabgrass plant response rating (crabgrass; [5]): 0
- Rape plant response rating (rape; [1]): 0
- Rape plant response rating (rape; [2]): 0
- Plant response rating, Rape (rape; [3]): 0
- Rape plant response rating (rape; [4]): 0
- Plant response rating (0 to 10; 0 is no effect, 10 is complete control), Rape (rape; Rate 250 g/ha, Postemergence): 0
- Rape plant response rating (rape; [5]): 0
- B. signalgrass plant response rating (surinam grass; [1]): 0
- B. signalgrass plant response rating (surinam grass; [2]): 0
- Plant response rating, B. signalgrass (surinam grass; [3]): 3
- B. signalgrass plant response rating (surinam grass; [6]): 0
- B. signalgrass plant response rating (surinam grass; Rate 125 g/ha, Postemergence, scale 0 (no effect) to 10 (complete control)): 0
- B. signalgrass plant response rating (surinam grass; [4]): 0
- Plant response rating (0 to 10; 0 is no effect, 10 is complete control), B. signalgrass (surinam grass; Rate 250 g/ha, Postemergence): 0
- B. signalgrass plant response rating (surinam grass; [5]): 0
- Corn plant response rating (corn; [1]): 0
- Corn plant response rating (corn; [2]): 0
- Plant response rating, Corn (corn; [3]): 0
- Corn plant response rating (corn; [6]): 0
- Corn plant response rating (corn; [7]): 0
- Corn plant response rating (corn; [4]): 0
- Plant response rating (0 to 10; 0 is no effect, 10 is complete control), Corn (corn; Rate 250 g/ha, Postemergence): 0
- Corn plant response rating (corn; [5]): 0
- Bedstraw plant response rating (bedstraw; [6]): 0
- Morningglory plant response rating (morningglory; [1]): 0
- Morningglory plant response rating (morningglory; [2]): 0
- Plant response rating, Morningglory (morningglory; [3]): 0
- Morningglory plant response rating (morningglory; [4]): 0
- Plant response rating (0 to 10; 0 is no effect, 10 is complete control), Morningglory (morningglory; Rate 250 g/ha, Postemergence): 6
- Morningglory plant response rating (morningglory; [5]): 6
- Velvetleaf plant response rating (velvetleaf; [1]): 0
- Velvetleaf plant response rating (velvetleaf; [2]): 0
- Plant response rating, Velvetleaf (velvetleaf; [3]): 0
- Velvetleaf plant response rating (velvetleaf; [4]): 0
- Velvetleaf plant response rating (velvetleaf; [5]): 1
- Sugarbeets plant response rating (sugar beet; [1]): 0
- Sugarbeets plant response rating (sugar beet; [2]): 0
- Plant response rating, Sugarbeets (sugar beet; [3]): 0
- Sugarbeets plant response rating (sugar beet; [4]): 0
- Sugarbeets plant response rating (sugar beet; [5]): 0
- Blackgrass plant response rating (blackgrass; [1]): 0
- Blackgrass plant response rating (blackgrass; [2]): 1
- Plant response rating, Blackgrass (blackgrass; [3]): 4
- Blackgrass plant response rating (blackgrass; [6]): 0
- Blackgrass plant response rating (blackgrass; [7]): 0
- Blackgrass plant response rating (blackgrass; [4]): 0
- Plant response rating (0 to 10; 0 is no effect, 10 is complete control), Blackgrass (blackgrass; Rate 250 g/ha, Postemergence): 0
- Blackgrass plant response rating (blackgrass; [5]): 5

SMILES: CC(=O)OCCCCn1c(=O)on(C(=O)N(c2ccc(F)cc2F)C(C)C)c1=O [Compound 506]
- Soybean plant response rating (soybean; [8]): 2
- Soybean plant response rating (soybean; [9]): 2
- Plant response rating, Soybean (soybean; [10]): 4
- Plant response rating, Soybean (soybean; [1]): 0
- Soybean plant response rating (soybean; [11]): 0
- Soybean plant response rating (soybean; [3]): 0
- Wheat plant response rating (wheat; [8]): 0
- Wheat plant response rating (wheat; [9]): 0
- Plant response rating, Wheat (wheat; [10]): 4
- Plant response rating, Wheat (wheat; [1]): 0
- Wheat plant response rating (wheat; [11]): 0
- Wheat plant response rating (wheat; [3]): 2
- Redroot pigweed plant response rating (pigweed; [8]): 0
- Redroot pigweed plant response rating (pigweed; [9]): 0
- Plant response rating, Redroot pigweed (pigweed; [10]): 0
- Plant response rating, Redroot pigweed (pigweed; [1]): 2
- Redroot pigweed plant response rating (pigweed; [11]): 8
- Redroot pigweed plant response rating (pigweed; [3]): 10
- Wild oats plant response rating (wild oat; [8]): 0
- Wild oats plant response rating (wild oat; [9]): 0
- Plant response rating, Wild oats (wild oat; [10]): 2
- Plant response rating, Wild oats (wild oat; [1]): 0
- Wild oats plant response rating (wild oat; [11]): 2
- Wild oats plant response rating (wild oat; [3]): 7
- Cocklebur plant response rating (cocklebur; [8]): 0
- Cocklebur plant response rating (cocklebur; [9]): 0
- Cocklebur plant response rating (cocklebur; [12]): 2
- Plant response rating, Cocklebur (cocklebur; [10]): 6
- Plant response rating, Cocklebur (cocklebur; [1]): 0
- Cocklebur plant response rating (cocklebur; [11]): 0
- Cocklebur plant response rating (cocklebur; [13]): 0
- Cocklebur plant response rating (cocklebur; [3]): 0
- Nutsedge plant response rating (purple nutsedge; [8]): 0
- Nutsedge plant response rating (purple nutsedge; [9]): 0
- Plant response rating, Nutsedge (purple nutsedge; [10]): 0
- Plant response rating, Nutsedge (purple nutsedge; [1]): 0
- Nutsedge plant response rating (purple nutsedge; [11]): 0
- Nutsedge plant response rating (purple nutsedge; [3]): 10
- Giant foxtail plant response rating (giant foxtail; [8]): 2
- Plant response rating, Giant foxtail (giant foxtail; [10]): 8
- Plant response rating, Giant foxtail (giant foxtail; [1]): 0
- Giant foxtail plant response rating (giant foxtail; [11]): 5
- Giant foxtail plant response rating (giant foxtail; [3]): 8
- Crabgrass plant response rating (crabgrass; [8]): 0
- Crabgrass plant response rating (crabgrass; [9]): 3
- Crabgrass plant response rating (crabgrass; [12]): 7
- Plant response rating, Crabgrass (crabgrass; [10]): 8
- Plant response rating, Crabgrass (crabgrass; [1]): 0
- Crabgrass plant response rating (crabgrass; [11]): 0
- Crabgrass plant response rating (crabgrass; [3]): 6
- Rape plant response rating (rape; [8]): 0
- Rape plant response rating (rape; [9]): 0
- Plant response rating, Rape (rape; [10]): 7
- Plant response rating, Rape (rape; [1]): 0
- Rape plant response rating (rape; [11]): 0
- Rape plant response rating (rape; [3]): 8
- B. signalgrass plant response rating (surinam grass; [8]): 0
- B. signalgrass plant response rating (surinam grass; [9]): 0
- B. signalgrass plant response rating (surinam grass; Postemergence, Rate 250 g/ha, scale 0 to 10, 0 no effect, 10 complete control): 0
- Plant response rating, B. signalgrass (surinam grass; [10]): 0
- Plant response rating, B. signalgrass (surinam grass; [1]): 0
- B. signalgrass plant response rating (surinam grass; [11]): 0
- B. signalgrass plant response rating (surinam grass; [13]): 0
- B. signalgrass plant response rating (surinam grass; [14]): 0
- Corn plant response rating (corn; [8]): 0
- Corn plant response rating (corn; [9]): 0
- Corn plant response rating (corn; [12]): 0
- Plant response rating, Corn (corn; [10]): 0
- Plant response rating, Corn (corn; [1]): 0
- Corn plant response rating (corn; [11]): 0
- Corn plant response rating (corn; [3]): 0
- Plant response rating, Bedstraw (bedstraw; [10]): 9
- Plant response rating, Bedstraw (bedstraw; [1]): 0
- Bedstraw plant response rating (bedstraw; [11]): 0
- Bedstraw plant response rating (bedstraw; [13]): 0
- Bedstraw plant response rating (bedstraw; [14]): 4
- Morningglory plant response rating (morningglory; [8]): 0
- Morningglory plant response rating (morningglory; [9]): 0
- Plant response rating, Morningglory (morningglory; [10]): 5
- Plant response rating, Morningglory (morningglory; [1]): 0
- Morningglory plant response rating (morningglory; [11]): 0
- Morningglory plant response rating (morningglory; [3]): 0
- Velvetleaf plant response rating (velvetleaf; [8]): 0
- Velvetleaf plant response rating (velvetleaf; [9]): 0
- Plant response rating, Velvetleaf (velvetleaf; [10]): 4
- Plant response rating, Velvetleaf (velvetleaf; [1]): 0
- Velvetleaf plant response rating (velvetleaf; [11]): 0
- Velvetleaf plant response rating (velvetleaf; [3]): 0
- Sugarbeets plant response rating (sugar beet; [8]): 2
- Sugarbeets plant response rating (sugar beet; [9]): 6
- Plant response rating, Sugarbeets (sugar beet; [10]): 7
- Plant response rating, Sugarbeets (sugar beet; [1]): 0
- Sugarbeets plant response rating (sugar beet; [11]): 0
- Sugarbeets plant response rating (sugar beet; [3]): 0
- Blackgrass plant response rating (blackgrass; [8]): 0
- Blackgrass plant response rating (blackgrass; [9]): 0
- Blackgrass plant response rating (blackgrass; [12]): 5
- Plant response rating, Blackgrass (blackgrass; [10]): 6
- Plant response rating, Blackgrass (blackgrass; [1]): 0
- Blackgrass plant response rating (blackgrass; [11]): 0
- Blackgrass plant response rating (blackgrass; [13]): 4
- Blackgrass plant response rating (blackgrass; [3]): 9
